Measurements as given in ChEMBL document CHEMBL4011588, “Design, synthesis, and biological evaluation of novel 4-anilinoquinazoline derivatives bearing amino acid moiety as potential EGFR kinase inhibitors” (Eur J Med Chem, 2017).
Activity calls are given as the source filed them. The calls are words filed in the database; no cut-off is given here.

Experiments:
HepG2 [1] = assay: Antiproliferative activity against human HepG2 cells after 72 hrs by sulforhodamine B assay; assay type: functional, cell-based; details: HepG2, 72 h
Aurora kinase B = Aurora kinase B (Homo sapiens, UniProt Q96GD4); assay: Inhibition of Aurora B (unknown origin) measured after 40 mins by Kinase Glo luminescence assay
Aurora kinase B, sequence (Q96GD4 whole entry): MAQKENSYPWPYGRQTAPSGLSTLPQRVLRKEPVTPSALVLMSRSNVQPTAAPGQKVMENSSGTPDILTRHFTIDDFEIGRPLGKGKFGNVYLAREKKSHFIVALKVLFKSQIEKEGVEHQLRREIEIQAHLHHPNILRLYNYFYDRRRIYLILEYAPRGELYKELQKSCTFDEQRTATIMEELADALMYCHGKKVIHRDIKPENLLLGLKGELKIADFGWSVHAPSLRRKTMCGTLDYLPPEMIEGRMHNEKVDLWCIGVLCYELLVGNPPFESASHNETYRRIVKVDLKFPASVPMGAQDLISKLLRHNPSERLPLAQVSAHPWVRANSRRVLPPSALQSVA

[2] = molecular target: Epidermal growth factor receptor (Homo sapiens, UniProt P00533); assay: Inhibition of EGFR (unknown origin) measured after 40 mins by Kinase Glo luminescence assay
Epidermal growth factor receptor, sequence (P00533 whole entry): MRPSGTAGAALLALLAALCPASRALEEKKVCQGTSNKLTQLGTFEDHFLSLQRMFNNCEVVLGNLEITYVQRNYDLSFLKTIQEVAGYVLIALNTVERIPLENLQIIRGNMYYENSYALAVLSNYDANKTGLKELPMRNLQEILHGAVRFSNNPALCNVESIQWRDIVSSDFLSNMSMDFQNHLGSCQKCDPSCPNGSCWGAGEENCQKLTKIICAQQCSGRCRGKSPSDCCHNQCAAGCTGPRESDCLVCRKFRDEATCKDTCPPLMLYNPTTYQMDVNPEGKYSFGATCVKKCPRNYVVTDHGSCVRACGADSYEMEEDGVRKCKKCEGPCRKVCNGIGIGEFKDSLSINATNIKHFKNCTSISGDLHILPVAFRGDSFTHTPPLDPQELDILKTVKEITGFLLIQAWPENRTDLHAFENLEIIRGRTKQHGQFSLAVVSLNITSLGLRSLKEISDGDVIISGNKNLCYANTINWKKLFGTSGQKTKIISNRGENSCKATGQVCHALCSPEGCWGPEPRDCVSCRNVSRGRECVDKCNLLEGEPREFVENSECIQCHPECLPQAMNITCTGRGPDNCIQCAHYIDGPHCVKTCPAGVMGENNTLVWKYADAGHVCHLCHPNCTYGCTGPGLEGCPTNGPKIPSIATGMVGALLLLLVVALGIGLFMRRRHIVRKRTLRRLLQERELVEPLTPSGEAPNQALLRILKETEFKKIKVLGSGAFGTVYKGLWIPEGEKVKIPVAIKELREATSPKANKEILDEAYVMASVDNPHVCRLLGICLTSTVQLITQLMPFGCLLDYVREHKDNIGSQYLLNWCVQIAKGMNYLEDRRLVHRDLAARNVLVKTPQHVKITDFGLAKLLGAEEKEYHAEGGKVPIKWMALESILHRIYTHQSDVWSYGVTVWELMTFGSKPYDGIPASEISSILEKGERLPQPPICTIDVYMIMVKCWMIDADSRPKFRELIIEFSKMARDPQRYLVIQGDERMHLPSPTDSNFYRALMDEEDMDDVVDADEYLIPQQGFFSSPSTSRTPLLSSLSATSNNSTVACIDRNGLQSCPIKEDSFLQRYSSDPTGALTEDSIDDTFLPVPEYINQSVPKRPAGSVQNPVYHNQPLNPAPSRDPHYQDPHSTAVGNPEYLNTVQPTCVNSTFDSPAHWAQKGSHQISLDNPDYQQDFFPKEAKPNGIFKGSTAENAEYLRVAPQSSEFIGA

[3] = molecular target: RAF proto-oncogene serine/threonine-protein kinase (Homo sapiens, UniProt P04049); assay: Inhibition of RAF (unknown origin) measured after 40 mins by Kinase Glo luminescence assay
RAF proto-oncogene serine/threonine-protein kinase, sequence (P04049 whole entry): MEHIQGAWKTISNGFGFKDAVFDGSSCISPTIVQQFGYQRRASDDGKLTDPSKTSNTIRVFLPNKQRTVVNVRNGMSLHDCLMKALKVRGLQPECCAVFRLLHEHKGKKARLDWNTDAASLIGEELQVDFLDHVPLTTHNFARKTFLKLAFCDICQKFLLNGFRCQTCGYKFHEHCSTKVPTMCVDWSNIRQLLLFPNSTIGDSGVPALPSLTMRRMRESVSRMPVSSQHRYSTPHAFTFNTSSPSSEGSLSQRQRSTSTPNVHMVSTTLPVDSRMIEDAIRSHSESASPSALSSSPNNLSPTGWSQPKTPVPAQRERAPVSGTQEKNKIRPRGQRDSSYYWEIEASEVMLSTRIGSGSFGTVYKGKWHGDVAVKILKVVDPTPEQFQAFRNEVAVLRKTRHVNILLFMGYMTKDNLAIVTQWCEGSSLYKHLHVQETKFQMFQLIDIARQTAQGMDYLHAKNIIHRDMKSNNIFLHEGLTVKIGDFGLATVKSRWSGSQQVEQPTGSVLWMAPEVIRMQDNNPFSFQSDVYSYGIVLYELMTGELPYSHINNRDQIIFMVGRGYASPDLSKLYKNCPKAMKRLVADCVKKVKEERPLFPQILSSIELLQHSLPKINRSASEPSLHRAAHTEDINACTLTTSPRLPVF

[4] = molecular target: Hepatocyte growth factor receptor (Homo sapiens, UniProt P08581); assay: Inhibition of c-MET (unknown origin) measured after 40 mins by Kinase Glo luminescence assay
Hepatocyte growth factor receptor, sequence (P08581 whole entry): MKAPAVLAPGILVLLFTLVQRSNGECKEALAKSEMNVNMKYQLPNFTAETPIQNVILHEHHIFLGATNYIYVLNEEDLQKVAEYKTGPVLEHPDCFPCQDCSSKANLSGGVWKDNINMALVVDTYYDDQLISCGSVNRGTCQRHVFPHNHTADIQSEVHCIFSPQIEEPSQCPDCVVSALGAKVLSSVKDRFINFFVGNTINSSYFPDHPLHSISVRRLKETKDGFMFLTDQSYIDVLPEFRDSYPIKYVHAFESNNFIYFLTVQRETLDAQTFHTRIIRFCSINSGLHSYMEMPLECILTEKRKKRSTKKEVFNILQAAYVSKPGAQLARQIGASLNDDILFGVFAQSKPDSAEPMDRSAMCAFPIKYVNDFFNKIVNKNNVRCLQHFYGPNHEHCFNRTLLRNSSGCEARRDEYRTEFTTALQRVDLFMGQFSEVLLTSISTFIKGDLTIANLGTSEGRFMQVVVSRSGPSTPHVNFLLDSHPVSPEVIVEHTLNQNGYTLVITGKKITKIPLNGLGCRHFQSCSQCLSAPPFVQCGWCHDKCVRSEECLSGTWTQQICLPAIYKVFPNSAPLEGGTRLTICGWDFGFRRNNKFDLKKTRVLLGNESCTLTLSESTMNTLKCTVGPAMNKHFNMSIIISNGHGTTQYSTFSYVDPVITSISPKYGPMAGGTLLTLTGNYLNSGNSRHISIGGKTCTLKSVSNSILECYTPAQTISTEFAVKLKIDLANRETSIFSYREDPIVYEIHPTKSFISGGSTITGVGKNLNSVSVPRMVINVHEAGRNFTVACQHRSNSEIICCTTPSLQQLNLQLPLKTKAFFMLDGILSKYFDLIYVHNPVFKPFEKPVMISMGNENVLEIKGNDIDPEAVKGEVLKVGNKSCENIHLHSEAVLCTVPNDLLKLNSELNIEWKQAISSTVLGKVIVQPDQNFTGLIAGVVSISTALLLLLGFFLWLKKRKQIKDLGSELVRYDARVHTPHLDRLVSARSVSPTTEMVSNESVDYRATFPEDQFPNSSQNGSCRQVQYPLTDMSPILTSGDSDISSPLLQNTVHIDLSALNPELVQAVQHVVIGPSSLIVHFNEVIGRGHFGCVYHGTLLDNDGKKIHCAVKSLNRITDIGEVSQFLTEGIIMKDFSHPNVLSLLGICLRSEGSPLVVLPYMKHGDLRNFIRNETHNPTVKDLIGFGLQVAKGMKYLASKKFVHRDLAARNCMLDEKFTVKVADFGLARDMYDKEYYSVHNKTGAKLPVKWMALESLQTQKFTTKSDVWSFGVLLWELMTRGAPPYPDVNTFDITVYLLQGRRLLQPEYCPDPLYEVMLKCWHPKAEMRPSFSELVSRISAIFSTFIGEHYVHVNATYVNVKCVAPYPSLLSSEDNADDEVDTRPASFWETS

[5] = molecular target: Vascular endothelial growth factor receptor 2 (Homo sapiens, UniProt P35968); assay: Inhibition of VEGFR2 (unknown origin) measured after 40 mins by Kinase Glo luminescence assay
Vascular endothelial growth factor receptor 2, sequence (P35968 whole entry): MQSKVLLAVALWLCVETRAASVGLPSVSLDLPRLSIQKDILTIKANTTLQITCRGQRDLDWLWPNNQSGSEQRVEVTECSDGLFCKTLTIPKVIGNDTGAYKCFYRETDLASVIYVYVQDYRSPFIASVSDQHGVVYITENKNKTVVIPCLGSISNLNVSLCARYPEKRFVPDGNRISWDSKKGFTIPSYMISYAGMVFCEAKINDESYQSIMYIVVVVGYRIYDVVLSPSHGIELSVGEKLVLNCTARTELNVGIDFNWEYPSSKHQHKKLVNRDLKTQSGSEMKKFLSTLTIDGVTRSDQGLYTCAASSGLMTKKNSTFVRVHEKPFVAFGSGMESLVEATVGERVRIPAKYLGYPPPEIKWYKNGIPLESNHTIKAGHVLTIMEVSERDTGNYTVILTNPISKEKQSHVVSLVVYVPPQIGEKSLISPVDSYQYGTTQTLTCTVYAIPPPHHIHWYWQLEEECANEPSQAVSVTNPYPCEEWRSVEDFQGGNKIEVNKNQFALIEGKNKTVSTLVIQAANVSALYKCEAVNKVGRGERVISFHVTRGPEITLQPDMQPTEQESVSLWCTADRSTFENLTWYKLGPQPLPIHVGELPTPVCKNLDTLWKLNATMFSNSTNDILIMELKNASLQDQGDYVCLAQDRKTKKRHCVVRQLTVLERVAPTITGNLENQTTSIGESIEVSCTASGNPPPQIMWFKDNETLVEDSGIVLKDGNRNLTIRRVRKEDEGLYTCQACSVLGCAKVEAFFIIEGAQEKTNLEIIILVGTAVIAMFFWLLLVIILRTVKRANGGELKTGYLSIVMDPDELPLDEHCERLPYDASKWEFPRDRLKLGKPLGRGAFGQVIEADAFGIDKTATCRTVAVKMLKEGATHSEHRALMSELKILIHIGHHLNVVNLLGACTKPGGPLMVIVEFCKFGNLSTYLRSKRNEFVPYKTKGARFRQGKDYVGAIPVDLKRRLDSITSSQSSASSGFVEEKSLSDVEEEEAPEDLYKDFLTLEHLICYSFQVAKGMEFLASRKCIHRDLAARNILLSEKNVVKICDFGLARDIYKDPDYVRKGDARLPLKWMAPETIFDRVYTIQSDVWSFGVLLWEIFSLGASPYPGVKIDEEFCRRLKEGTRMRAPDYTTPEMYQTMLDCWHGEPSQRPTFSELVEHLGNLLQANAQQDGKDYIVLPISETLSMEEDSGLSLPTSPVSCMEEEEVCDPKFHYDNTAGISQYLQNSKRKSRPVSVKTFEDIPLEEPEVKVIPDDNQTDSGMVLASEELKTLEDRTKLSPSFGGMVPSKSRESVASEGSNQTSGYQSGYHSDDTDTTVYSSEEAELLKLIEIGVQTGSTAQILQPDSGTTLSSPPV

[6] = molecular target: Dual specificity mitogen-activated protein kinase kinase; MEK1/2 (Homo sapiens, UniProt P36507+Q02750); assay: Inhibition of MEK (unknown origin) measured after 40 mins by Kinase Glo luminescence assay
HepG2 [7] = assay: Induction of apoptosis in human HepG2 cells assessed as late apoptotic cells at 10 uM after 24 to 72 hrs by Annexin V-FITC/propidium iodide staining based flow cytometric method (reference value: 4.56%); assay type: functional
HepG2 [8] = assay: Induction of apoptosis in human HepG2 cells assessed as early apoptotic cells at 10 uM after 24 to 72 hrs by Annexin V-FITC/propidium iodide staining based flow cytometric method (reference value: 1.28%); assay type: functional
HepG2 [9] = assay: Induction of apoptosis in human HepG2 cells assessed as early apoptotic cells at 2 uM after 24 to 72 hrs by Annexin V-FITC/propidium iodide staining based flow cytometric method (reference value: 1.28%); assay type: functional
HepG2 [10] = assay: Induction of apoptosis in human HepG2 cells assessed as decrease in Bcl-2 expression at 2 to 10 uM after 30 mins to 24 hrs by Western blot method; assay type: functional, cell-based
HepG2 [11] = assay: Induction of apoptosis in human HepG2 cells assessed as decrease in mitochondrial membrane potential after 15 mins to 24 hrs by JC1 staining based fluorescence microscopic method; assay type: functional, cell-based
HepG2 [12] = assay: Induction of apoptosis in human HepG2 cells assessed as nuclear chromatin condensation at 2 to 10 uM after 15 mins to 24 hrs by Hoechst 33258 staining based fluorescence microscopic method; assay type: functional, cell-based
HepG2 [13] = assay: Induction of apoptosis in human HepG2 cells assessed as appearance of apoptotic bodies at 2 to 10 uM after 15 mins to 24 hrs by Hoechst 33258 staining based fluorescence microscopic method; assay type: functional, cell-based
HepG2 [14] = assay: Induction of apoptosis in human HepG2 cells assessed as late apoptotic cells at 5 uM after 24 to 72 hrs by Annexin V-FITC/propidium iodide staining based flow cytometric method (reference value: 4.56%); assay type: functional
HepG2 [15] = assay: Induction of apoptosis in human HepG2 cells assessed as late apoptotic cells at 2 uM after 24 to 72 hrs by Annexin V-FITC/propidium iodide staining based flow cytometric method (reference value: 4.56%); assay type: functional
HepG2 [16] = assay: Induction of apoptosis in human HepG2 cells assessed as increase in Bax expression at 2 to 10 uM after 30 mins to 24 hrs by Western blot method; assay type: functional, cell-based
HepG2 [17] = assay: Induction of apoptosis in human HepG2 cells assessed as increase in cytochrome-c expression at 10 uM after 30 mins to 24 hrs by Western blot method; assay type: functional, cell-based
HepG2 [18] = assay: Induction of apoptosis in human HepG2 cells assessed as increase in cleaved caspase-3 level at 5 to 10 uM after 30 mins to 24 hrs by Western blot method; assay type: functional, cell-based
HepG2 [19] = assay: Induction of apoptosis in human HepG2 cells assessed as early apoptotic cells at 5 uM after 24 to 72 hrs by Annexin V-FITC/propidium iodide staining based flow cytometric method (reference value: 1.28%); assay type: functional
HepG2 [20] = assay: Induction of apoptosis in human HepG2 cells after 24 to 72 hrs by Annexin V-FITC/propidium iodide staining based flow cytometric method; assay type: functional, cell-based

| Compound | IC50 (HepG2 [1]) [µM] | IC50 (Aurora kinase B) [µM] | IC50 [2] [µM] | other results |
| --- | --- | --- | --- | --- |
| CC(C)C[C@@H](NC(=O)OC(C)(C)C)C(=O)Nc1ccc2ncnc(Nc3cccc(C(F)(F)F)c3)c2c1 | > 50 | > 100 | – | – |
| CC(C)[C@@H](NC(=O)OC(C)(C)C)C(=O)Nc1ccc2ncnc(Nc3cccc(Br)c3)c2c1 | > 50 | > 100 | – | – |
| CSCC[C@@H](NC(=O)OC(C)(C)C)C(=O)Nc1ccc2ncnc(Nc3cccc(C(F)(F)F)c3)c2c1 | > 50 | > 100 | – | – |
| C[C@@H](NC(=O)OC(C)(C)C)C(=O)Nc1ccc2ncnc(Nc3cccc(Br)c3)c2c1 | > 50 | > 100 | > 100 | – |
| CC[C@H](C)[C@@H](NC(=O)OC(C)(C)C)C(=O)Nc1ccc2ncnc(Nc3ccc(F)c(Cl)c3)c2c1 | > 50 | > 100 | – | – |
| CC(C)[C@@H](NC(=O)OC(C)(C)C)C(=O)Nc1ccc2ncnc(Nc3cccc(C(F)(F)F)c3)c2c1 | 4.3 | > 100 | 1.02 | IC50 [3]: > 100 µM; IC50 [4]: 100 to 500 µM; IC50 [5]: > 100 µM; IC50 [6]: > 100 µM |
| CC(C)[C@@H](NC(=O)OC(C)(C)C)C(=O)Nc1ccc2ncnc(Nc3ccc(F)c(Cl)c3)c2c1 | > 50 | > 100 | – | – |
| C[C@@H](NC(=O)OC(C)(C)C)C(=O)Nc1ccc2ncnc(Nc3cccc(C(F)(F)F)c3)c2c1 | > 50 | > 100 | > 100 | – |
| Cc1cccc(C)c1Nc1ncnc2ccc(NC(=O)CNC(=O)OC(C)(C)C)cc12 | > 50 | > 100 | – | – |
| CSCC[C@@H](NC(=O)OC(C)(C)C)C(=O)Nc1ccc2ncnc(Nc3ccc(F)c(Cl)c3)c2c1 | > 50 | > 100 | – | – |
| CC(C)C[C@@H](NC(=O)OC(C)(C)C)C(=O)Nc1ccc2ncnc(Nc3cccc(Br)c3)c2c1 | 25 | > 100 | 0.145 | – |
| COc1cc2c(Nc3ccc(NC(=O)c4ccccc4)cc3)ncnc2cc1OCCCN1CCOCC1 | 1.4 | – | 0.11 | Activity (HepG2 [7]): 8.86%; Activity (HepG2 [8]): 1.09% |
| CC(C)(C)OC(=O)NCC(=O)Nc1ccc2ncnc(Nc3cccc(C(F)(F)F)c3)c2c1 | > 50 | 51 | – | – |
| CC(C)C[C@@H](NC(=O)OC(C)(C)C)C(=O)Nc1ccc2ncnc(Nc3ccc(F)c(Cl)c3)c2c1 | 13.8 | > 100 | 0.14 | – |
| CC(C)(C)OC(=O)NCC(=O)Nc1ccc2ncnc(Nc3ccc(F)c(Cl)c3)c2c1 | 33 | 23.7 | 0.017 | – |
| CC(C)(C)OC(=O)NCC(=O)Nc1ccc2ncnc(Nc3cccc(Br)c3)c2c1 | 8.3 | 6.2 | – | Activity (HepG2 [9]): 2.08%; IC50 [3]: 17.3 µM; Activity (HepG2 [10]): Active; IC50 [4]: > 100 µM; Activity (HepG2 [11]): Dose-dependent effect; Activity (HepG2 [12]): Active; Activity (HepG2 [13]): Active; Activity (HepG2 [7]): 32.19%; Activity (HepG2 [8]): 1.53%; Activity (HepG2 [14]): 9.25%; IC50 [5]: 18.7 µM; Activity (HepG2 [15]): 6.38%; IC50 [6]: 7.35 µM; Activity (HepG2 [16]): Active; Activity (HepG2 [17]): Active; Activity (HepG2 [18]): Active; Activity (HepG2 [19]): 1.96%; Activity (HepG2 [20]): Dose-dependent effect |
| CC[C@H](C)[C@@H](NC(=O)OC(C)(C)C)C(=O)Nc1ccc2ncnc(Nc3cccc(C(F)(F)F)c3)c2c1 | > 50 | > 100 | – | – |
| CC[C@H](C)[C@@H](NC(=O)OC(C)(C)C)C(=O)Nc1ccc2ncnc(Nc3cccc(Br)c3)c2c1 | 34 | > 100 | 0.0555 | – |
| C[C@@H](NC(=O)OC(C)(C)C)C(=O)Nc1ccc2ncnc(Nc3ccc(F)c(Cl)c3)c2c1 | > 50 | > 100 | > 100 | – |
| CSCC[C@@H](NC(=O)OC(C)(C)C)C(=O)Nc1ccc2ncnc(Nc3cccc(Br)c3)c2c1 | > 50 | > 100 | – | – |
